# Test results as given in US8546377B2 (AbbVie Inc., priority 2009, dated 2013).
# Where two headings read alike, the source gives them in different places.
# Tests used:
# 5HT2C receptors = target: T1, 5HT2C receptors (Homo sapiens, UniProt P28335); assay: Human 5-HT2C functional assay in CHO-K1 cells (calcium flux, FLIPR); type: cell-based; set-up: expressed in transfected cells; host or cells: CHO-K1 cells; details: for Emax: percentage relative to the effect of serotonin
# T1 sequence (P28335 33-458): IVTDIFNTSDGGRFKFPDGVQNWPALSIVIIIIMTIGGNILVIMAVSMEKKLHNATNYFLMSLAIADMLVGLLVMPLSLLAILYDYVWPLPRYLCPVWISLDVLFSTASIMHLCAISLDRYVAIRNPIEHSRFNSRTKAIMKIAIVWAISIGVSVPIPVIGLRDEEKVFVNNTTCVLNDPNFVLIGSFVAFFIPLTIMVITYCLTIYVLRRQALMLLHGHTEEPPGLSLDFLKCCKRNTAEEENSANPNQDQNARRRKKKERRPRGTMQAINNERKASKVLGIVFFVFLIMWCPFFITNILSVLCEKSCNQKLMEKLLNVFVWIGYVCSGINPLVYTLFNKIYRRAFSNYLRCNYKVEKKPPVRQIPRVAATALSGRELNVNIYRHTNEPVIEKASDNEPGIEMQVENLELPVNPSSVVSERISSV
# Outline: (§1)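 Frozen CHO-K1 cells over-expressing receptor, serum-starved overnight, loaded with Ca4 dye plus 2.5 mM probenecid for 60 min at room temperature. FLIPR fluorescence (ex 480/em 530 nm, 25° C) recorded 3 min after compound addition; 6-point 1:10 series from 10 μM, 0.2% DMSO. Response normalized to serotonin, 4-parameter fit gives EC50; Emax as % of serotonin.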
# 5HT2B receptors = target: T2, 5HT2B receptors (Homo sapiens, UniProt P41595); assay: Human 5-HT2B functional assay in CHO-K1 cells (calcium flux, FLIPR); type: cell-based
# T2 construct: expressed in transfected cells; host or cells: CHO-K1 cells
# T2 sequence (P41595 whole entry): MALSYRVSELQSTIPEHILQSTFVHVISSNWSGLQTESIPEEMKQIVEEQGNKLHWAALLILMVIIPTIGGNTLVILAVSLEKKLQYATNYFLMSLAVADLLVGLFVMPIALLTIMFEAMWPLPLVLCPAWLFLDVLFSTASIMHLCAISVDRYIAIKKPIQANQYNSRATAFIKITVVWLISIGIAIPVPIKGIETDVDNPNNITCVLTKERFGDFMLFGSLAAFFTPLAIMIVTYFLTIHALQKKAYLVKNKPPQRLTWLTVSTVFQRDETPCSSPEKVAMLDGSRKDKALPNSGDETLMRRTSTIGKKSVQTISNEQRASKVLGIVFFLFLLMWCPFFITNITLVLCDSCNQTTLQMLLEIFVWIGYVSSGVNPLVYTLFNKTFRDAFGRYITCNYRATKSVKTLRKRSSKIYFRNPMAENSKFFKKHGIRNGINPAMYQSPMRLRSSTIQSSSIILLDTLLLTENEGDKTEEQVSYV
# Outline: as §1
# [1] = CHO-K1 cells over-expressing 5HT2C, calcium flux, read-out: EC50 (μM), 5-HT2c Agonist Activity
# [2] = CHO-K1 cells, read-out: Emax (%), 5-HT2c Agonist Activity
# [3] = CHO-K1 cells over-expressing 5HT2B, calcium flux, read-out: EC50 (μM), 5-HT2B Agonist Activity
# [4] = CHO-K1 cells, percentage relative to the effect of serotonin, read-out: Emax (%), 5-HT2B Agonist Activity
# [5] = CHO-K1, read-out: Emax (%), 5-HT2c Agonist Activity, CHO-K1 cells
# [6] = CHO-K1, read-out: Emax (%), 5-HT2B Agonist Activity
Compound,EC50 (5HT2C receptors; [1]),Emax (5HT2C receptors; [2]),EC50 (5HT2B receptors; [3]),Emax (5HT2B receptors; [4]),EC50 (5HT2C receptors),Emax (5HT2C receptors; [5]),EC50 (5HT2B receptors),Emax (5HT2B receptors; [6])
"C1=C(c2ccc3c(c2)N2CCNC[C@@H]2CCO3)CCOC1 [Example 210, (4aS)-10-(3,6-dihydro-2H-pyran-4-yl)-2,3,4,4a,5,6-hexahydro-1H-pyrazino[2,1-d][1,5]benzoxazepine]",0.01 µM,> 120%,1 µM,20%,–,–,–,–
"CCc1ccc2c(c1)N1CCNC[C@@H]1CCO2 [Example 211, (4aS)-10-ethyl-2,3,4,4a,5,6-hexahydro-1H-pyrazino[2,1-d][1,5]benzoxazepine]",–,–,–,–,0.02 µM,70%,0.04 µM,45%
"c1ccc(CCc2ccc3c(c2)N2CCNC[C@@H]2CCO3)cc1 [Example 212, (4aS)-10-(2-phenylethyl)-2,3,4,4a,5,6-hexahydro-1H-pyrazino[2,1-d][1,5]benzoxazepine]",0.007 µM,80%,0.4 µM,45%,–,–,–,–
"CC(C)Cc1ccc2c(c1)N1CCNC[C@@H]1CCO2 [Example 213, (4aS)-10-isobutyl-2,3,4,4a,5,6-hexahydro-1H-pyrazino[2,1-d][1,5]benzoxazepine]",0.03 µM,120%,1 µM,25%,–,–,–,–
"Clc1cc2c(cc1Cl)N1CCNC[C@@H]1CCO2 [Example 214, (4aS)-9,10-dichloro-2,3,4,4a,5,6-hexahydro-1H-pyrazino[2,1-d][1,5]benzoxazepine]",–,–,–,–,0.002 µM,> 120%,0.03 µM,60%
"FC(F)(F)c1cccc2c1OCC[C@H]1CNCCN21 [Example 215, (4aS)-8-(trifluoromethyl)-2,3,4,4a,5,6-hexahydro-1H-pyrazino[2,1-d][1,5]benzoxazepine]",0.003 µM,110%,> 10 µM,–,–,–,–,–
"FC(F)(F)c1ccc2c(c1)OCC[C@H]1CNCCN21 [Example 216, (4aS)-9-(trifluoromethyl)-2,3,4,4a,5,6-hexahydro-1H-pyrazino[2,1-d][1,5]benzoxazepine]",0.07 µM,55%,> 10 µM,–,–,–,–,–
"FC(F)(F)c1ccc2c(c1)N1CCNC[C@@H]1CCO2 [Example 217, (4aS)-10-(trifluoromethyl)-2,3,4,4a,5,6-hexahydro-1H-pyrazino[2,1-d][1,5]benzoxazepine]",0.01 µM,100%,0.09 µM,70%,–,–,–,–
"Fc1ccc2c(c1F)OCC[C@H]1CNCCN21 [Example 218, (4aS)-8,9-difluoro-2,3,4,4a,5,6-hexahydro-1H-pyrazino[2,1-d][1,5]benzoxazepine]",–,–,–,–,0.002 µM,100%,0.07 µM,20%
"CN1CCN2c3ccc(Cl)cc3OCC[C@H]2C1 [Example 220, (4aS)-9-chloro-3-methyl-2,3,4,4a,5,6-hexahydro-1H-pyrazino[2,1-d][1,5]benzoxazepine]",–,–,–,–,0.04 µM,40%,> 10 µM,–
"CN1CCN2c3cc(-c4cccc(S(C)(=O)=O)c4)ccc3OCC[C@H]2C1 [Example 221, (4aS)-3-methyl-10-[3-(methylsulfonyl)phenyl]-2,3,4,4a,5,6-hexahydro-1H-pyrazino[2,1-d][1,5]benzoxazepine]",0.1 µM,50%,> 10 µM,–,–,–,–,–
"CC(O)c1cccc(-c2ccc3c(c2)N2CCNC[C@@H]2CCO3)c1 (stereo partly drawn) [Example 222, 1-{3-[(4aS)-2,3,4,4a,5,6-hexahydro-1H-pyrazino[2,1-d][1,5]benzoxazepin-10-yl]phenyl}ethanol]",0.0008 µM,100%,0.4 µM,50%,–,–,–,–
"c1ccc(-c2cccc3c2OCC[C@H]2CNCCN32)cc1 [Example 223, (4aS)-8-phenyl-2,3,4,4a,5,6-hexahydro-1H-pyrazino[2,1-d][1,5]benzoxazepine]",0.02 µM,100%,> 10 µM,–,–,–,–,–
"c1cc(-c2ccc3c(c2)N2CCNC[C@@H]2CCO3)co1 [Example 224, (4aS)-10-(3-furyl)-2,3,4,4a,5,6-hexahydro-1H-pyrazino[2,1-d][1,5]benzoxazepine]",0.1 µM,85%,0.4 µM,40%,–,–,–,–
"Clc1cc(Cl)c2c(c1)N1CCNC[C@@H]1CCO2 [Example 225, (4aS)-8,10-dichloro-2,3,4,4a,5,6-hexahydro-1H-pyrazino[2,1-d][1,5]benzoxazepine]",–,–,–,–,0.01 µM,70%,0.04 µM,50%
"Cc1cc(Cl)cc2c1OCC[C@H]1CNCCN21 [Example 227, (4aS)-10-chloro-8-methyl-2,3,4,4a,5,6-hexahydro-1H-pyrazino[2,1-d][1,5]benzoxazepine]",–,–,–,–,0.008 µM,85%,0.05 µM,20%
"CC(O)c1ccc(-c2ccc3c(c2)OCC[C@H]2CNCCN32)cc1 (stereo partly drawn) [Example 228, 1-{4-[(4aS)-2,3,4,4a,5,6-hexahydro-1H-pyrazino[2,1-d][1,5]benzoxazepin-9-yl]phenyl}ethanol]",0.009 µM,100%,> 10 µM,–,–,–,–,–
"CC(O)c1cccc(-c2ccc3c(c2)OCC[C@H]2CNCCN32)c1 (stereo partly drawn) [Example 229, 1-{3-[(4aS)-2,3,4,4a,5,6-hexahydro-1H-pyrazino[2,1-d][1,5]benzoxazepin-9-yl]phenyl}ethanol]",0.02 µM,100%,> 10 µM,–,–,–,–,–
"CS(=O)(=O)c1ccc(-c2ccc3c(c2)OCC[C@H]2CNCCN32)cc1 [Example 230, (4aS)-9-[4-(methylsulfonyl)phenyl]-2,3,4,4a,5,6-hexahydro-1H-pyrazino[2,1-d][1,5]benzoxazepine]",0.07 µM,90%,> 10 µM,–,–,–,–,–
"COc1ccc2c(c1)OCC[C@H]1CN(C)CCN21 [Example 232, (4aS)-9-methoxy-3-methyl-2,3,4,4a,5,6-hexahydro-1H-pyrazino[2,1-d][1,5]benzoxazepine]",–,–,–,–,0.05 µM,50%,> 10 µM,–
"CC(O)c1cccc(-c2cccc3c2OCC[C@H]2CNCCN32)c1 (stereo partly drawn) [Example 233, 1-{3-[(4aS)-2,3,4,4a,5,6-hexahydro-1H-pyrazino[2,1-d][1,5]benzoxazepin-8-yl]phenyl}ethanol]",0.003 µM,105%,> 10 µM,–,–,–,–,–
"CC(O)c1ccc(-c2cccc3c2OCC[C@H]2CNCCN32)cc1 (stereo partly drawn) [Example 234, 1-{4-[(4aS)-2,3,4,4a,5,6-hexahydro-1H-pyrazino[2,1-d][1,5]benzoxazepin-8-yl]phenyl}ethanol]",0.01 µM,105%,0.3 µM,10%,–,–,–,–
"CCN1CCN2c3ccccc3OCC[C@H]2C1 [Example 235, (4aS)-3-ethyl-2,3,4,4a,5,6-hexahydro-1H-pyrazino[2,1-d][1,5]benzoxazepine]",–,–,–,–,0.02 µM,100%,> 10 µM,–
"Brc1cccc2c1OCC[C@H]1CNCCN21 [Example 236, (4aS)-8-bromo-2,3,4,4a,5,6-hexahydro-1H-pyrazino[2,1-d][1,5]benzoxazepine]",–,–,–,–,0.002 µM,100%,0.01 µM,10%
"CCc1cccc2c1OCC[C@H]1CNCCN21 [Example 237, (4aS)-8-ethyl-2,3,4,4a,5,6-hexahydro-1H-pyrazino[2,1-d][1,5]benzoxazepine]",–,–,–,–,0.005 µM,90%,> 10 µM,–
